Assay results taken from patent publication US6391301B1, “Agent for identifying and treating metastasizing tumors” (Forschungszentrum Karlsruhe GmbH, priority 1998, dated 2002).

Test system: M-N#1 antibody binding to proteins in lysates from MT-450 cells
Experiment: Competition of M-N#1 binding with fucose and galactose (immunoprecipitation)
Set-up: species or system rat
Details: increasing amounts of sugar, lysates from radiolabelled MT-450 cells
Method: Immunoprecipitation: cells were labeled by incubation with (^35S)L-methionine ([…]) in methionine-free RPMI medium supplemented with dialyzed FCS for 4 h. For a pulse-chase analysis, cells were incubated with (^35S)L-methionine ([…]) in methionine-free RPMI medium supplemented with dialyzed FCS for 15 minutes, then washed and incubated further with methionine-containing medium. For immunoprecipitations, cells were lyzed in RIPA (radioimmunoprecipitation) buffer, and aliquots were immunoprecipitated with 5 μg of antibodies. To purify proteins which bind to Ulex europaeus lectin, the cells were lyzed with PBS/1% NP40/1 mM PMSF and centrifuged, and the lysates were incubated with Ulex europaeus lectin beads at 4° C. for one hour. The beads were then washed three times with PBS, and the excess buffer was removed. The beads were boiled in 1% SDS/20 mM phosphate at pH 7.0. A 20-fold excess of RIPA buffer was then added, and the supernatant was used for the immunoprecipitation after removal of the Ulex europaeus lectin beads. In experiments in which immunoprecipitated proteins were treated with 0.5 U of N-glycosidase F, 2.5 mU of O-glycosidase or 5 mU of neuraminidase, the antigen-antibody matrix bead complex was initially washed in 100 mM phosphate buffer, pH 7.0. Buffer was removed and then the matrix beads were boiled in 5 μl of 1% SDS/20 mM phosphate, pH 7.0, for 5 minutes. The enzymes were then added in 45 μl of 20 mM phosphate buffer (pH 7.0)/1 mM CaSO4. The efficiency of the enzyme reaction was confirmed by comparison with similar digestive processes on immunoprecipitated CD44v4-v7 protein, which is digested by each of said enzymes. Immunoprecipitated proteins were removed by SDS (sodium dodecyl sulfate) PAGE (polyacrylamide gel electrophoresis). Gels were treated with PPO (2,5-diphenyloxazole) and exposed to X-ray sensitive film material.
Competition of M-N#1 binding with fucose and galactose. […]

Compound	Effect on protein binding to M-N#1 antibody
C[C@@H](O)[C@H](O)[C@H](O)[C@@H](O)C=O [D-fucose]	inhibited
O=C[C@H](O)[C@@H](O)[C@@H](O)[C@H](O)CO [D-galactose]	inhibited
C[C@H](O)[C@@H](O)[C@@H](O)[C@H](O)C=O [L-Fucose]	no effect
